From patent publication US20060167276A1, “Clausenamide c5-hydroxyl derivatives and n-substituted derivatives, processes for their preparation, its composition and use” (priority 2002, published 2006)

Tests used:
[1] = system: C17-2 mouse brain neural stem cells; assay: Cell proliferation of mouse brain neural stem cells (MTT, OD 490 nm); format: cell-based; conditions: for Cell proliferation %: control group = 100%; for promotion effects on cell proliferation of mouse brain neural stem cells: at doses of 0.1 μM and 1 μM
Description: C17-2 mouse brain neural stem cells (C17-2 cells) were continuously cultured in 1640 medium with 10% horse serum and 10% fetal bovine serum at 5% CO2 and 37° C., dissociated to single cell suspension by 0.1% trypsin solution, centrifuged at 1,000 rpm×5 min and rinsed with medium. The cells were seeded in a 96-well plate, 1×10^3 cells per well, 3 well per group, continuously cultured. After 24 hours, the test compounds were added, doses of each of the C5-hydroxyl substituted clausenamides and N-substituted clausenamide derivatives were 0.1 μM, 1 μM and 10 μM respectively. The growth situation of the cells was observed under a microscope, once daily. At the 4th day, media in each well were pipetted, phosphate buffer solution containing MTT was added. 4 Hours later, the fluid was discarded, and a DMSO solution was added. The cells were incubated at 37° C. for 10 min under shaken. OD values on 490 nm of each well were detected. Set the growth rate of the control group as 100%, and the growth rates of each dose were given by comparison with the control group and t-tested.

rat hippocampus = assay: LTP / synaptic transmission in rat hippocampus (population spike amplitude, dentate gyrus); format: in vivo; conditions: for Relative PS (PSA %): lateral ventricle, prior administration = 100; for effects on synaptic transmission: P<0.05 vs. control, n=5
Text: Male adult SD Rats (5 per group) were anesthetized with 20% (w/v) urethane carbamate (1.0 g·kg^−1, ip) and fixed in a stereotaxic head holder. According to the reference of Pellegrino stereotaxic spectrum of rat, recording electrodes (stainless steel needle of 0.2 mm diameter were insulted except for 0.2 mm tip) were placed in the dentate gyrus granule cell layer. The stimulating electrodes (two stainless steel needles of 0.15 mm diameter coated with Teflon except for the 0.2 mm tip, and the distance between two needles was 0.5 mm) were planted between the fibre of perforant path (PP) in rat. Continuous pulse was provided by electronic stimulator, and delivered to PP through stimulus isolator and stimulating electrodes. Electrode depth was then adjusted until a typical excitatory postsynaptic potential (EPSP) was observed. Electric current was magnified by amplifier and collected by computer, then processed by DataWave software. The stimulus intensity was adjusted to produce population spike (PS) with a slope that was ≈50% of the maximum. Single-pulse test stimuli were at an interval of 30 sec during the experiment. Population spike amplitude (PSA) was recorded and the relatively percent of PSA was calculated according to the formula (PSA/basic value).

[2] = dose 10^−5 M, MTT at 4th day, OD 490 nm
[3] = dose 10^−6 M, MTT at 4th day, OD 490 nm
[4] = dose 10^−7 M, MTT at 4th day, OD 490 nm

Row | Compound | Result (OD value) [1, 2] | Cell proliferation % ([1]; dose 10^−5 M) | Result (OD value) [1, 3] | Cell proliferation % ([1]; dose 10^−6 M) | Result (OD value) [1, 4] | Cell proliferation % ([1]; dose 10^−7 M) | Relative PS (PSA %) (rat hippocampus; 15 min after administration) | Relative PS (PSA %) (rat hippocampus; 30 min after administration) | Relative PS (PSA %) (rat hippocampus; 45 min after administration) | Relative PS (PSA %) (rat hippocampus; 60 min after administration) | effects on synaptic transmission (rat hippocampus) | effects on cell proliferation of mouse brain neural stem cells (conclusion) [1] | promotion effects on cell proliferation of mouse brain neural stem cells [1] | Result (OD value) ([1]; positive control, dose 5 mg/L) | Cell proliferation % ([1]; positive control, dose 5 mg/L)
1 | CC(=O)OCN1C(=O)C(O)C(c2ccccc2)C1C(O)c1ccccc1 (single isomer, unassigned; (-)) [(−)III3, N-acetoxymethylene-norclausenamide] | 0.061 ± 0.007 | 44.53% | 0.147 ± 0.021 | 107.30% | 0.217 ± 0.024 | 158.39% | 90.33 ± 16.11% | 100.15 ± 7.48% | 118.33 ± 25.07% | 141.37 ± 30.83% | – | – | – | – | –
2 | CN1C(=O)[C@@H](O)[C@H](c2ccccc2)[C@]1(O)[C@H](O)c1ccccc1 [(+)II1, (+)-(3S,4S,5S,6R)-5-hydroxy-clausenamide] | 0.093 ± 0.007 | 67.88% | 0.264 ± 0.036 | 192.70% | 0.250 ± 0.016 | 182.48% | 144.86 ± 49.53% | 168.02 ± 49.16% | 194.32 ± 56.65 % | 233.24 ± 55.62 % | significantly upstanding effects | – | – | – | –
3 | CN1C(=O)[C@@H](O)[C@H](c2ccccc2)[C@@]1(O)[C@@H](O)c1ccccc1 [(+)II2, (+)-(3S,4S,5R,6S)-5-hydroxy-clausenamide] | 0.076 ± 0.008 | 55.47% | 0.220 ± 0.023 | 160.58% | 0.175 ± 0.059 | 127.74% | 81.48 ± 6.13% | 77.33 ± 8.93% | 82.56 ± 1.87% | 99.92 ± 6.26% | – | – | – | – | –
4 | CN1C(=O)[C@H](O)[C@@H](c2ccccc2)[C@@]1(O)[C@H](O)c1ccccc1 [(+)II3, (+)-(3R,4R,5R,6R)-5-hydroxy-clausenamide] | 0.131 ± 0.009 | 95.62% | 0.199 ± 0.024 | 145.26% | 0.253 ± 0.020 | 184.67% | 91.74 ± 17.21% | 117.87 ± 14.93% | 161.14 ± 13.94 % | 188.03 ± 5.28 % | significantly upstanding effects | significant effects | significant promotion effects | – | –
5 | CC(=O)O[C@@H]1C(=O)N(C)[C@@](O)([C@H](O)c2ccccc2)[C@H]1c1ccccc1 [(−)-3-O-AC-II1, (−)-(3S,4S,5S,6R)-3-O-acetyl-5-hydroxy-clausenamide] | 0.063 ± 0.014 | 45.99% | 0.072 ± 0.006 | 52.55% | 0.179 ± 0.004 | 130.66% | 78.91 ± 13.90% | 83.73 ± 13.59% | 94.60 ± 8.87% | 102.66 ± 2.88% | – | – | – | – | –
6 | CN1C(=O)[C@H](O)[C@@H](c2ccccc2)[C@@]1(O)[C@@H](O)c1ccccc1 [(−)II1, (−)-(3R,4R,5R,6S)-5-hydroxy-clausenamide] | 0.126 ± 0.016 | 91.97% | 0.236 ± 0.049 | 172.26% | 0.256 ± 0.020 | 186.86% | – | – | – | – | – | significant effects | significant promotion effects | – | –
7 | CN1C(=O)[C@H](O)[C@@H](c2ccccc2)[C@]1(O)[C@H](O)c1ccccc1 [(−)II2, (−)-(3R,4R,5S,6R)-5-hydroxy-clausenamide] | 0.156 ± 0.095 | 113.87% | 0.163 ± 0.038 | 118.98% | 0.233 ± 0.033 | 170.07% | 110.55 ± 7.27% | 103.09 ± 10.12% | 94.49 ± 10.53% | 88.40 ± 14.42% | – | – | – | – | –
8 | fibroblast growth factor [FGF, reference compound] | – | – | – | – | – | – | – | – | – | – | – | – | – | 0.340 ± 0.035 | 248.17%
